According to ChEMBL document CHEMBL5608200, “Design, synthesis, and evaluation of antitumor activity of 2-arylmethoxy-4-(2-fluoromethyl-biphenyl-3-ylmethoxy) benzylamine derivatives as PD-1/PD-l1 inhibitors” (Eur J Med Chem, 2024):
The source made the active and inactive calls. No cut-off for these calls is given here.

Columns and labels:
[1] = Clearance in Sprague-Dawley rat at 10 mg/kg, iv measured upto 48 hrs by LC-MS/MS analysis; type: ADME, organism-based; details: in vivo
[2] = Cmax in Sprague-Dawley rat at 50 mg/kg, IG measured upto 48 hrs by LC-MS/MS analysis; type: ADME, organism-based; details: in vivo, po
HCC827 [3] = test: Induction of T-cell mediated apoptosis in human HCC827 cells cocultured with PMA-stimulated Jurkat T cells assessed as mortality rate at 8 uM incubated for 48 hrs by CCK-8 assay; type: functional
[4] = Tmax in Sprague-Dawley rat at 50 mg/kg, IG measured upto 48 hrs by LC-MS/MS analysis; type: ADME, organism-based; details: in vivo, po
[5] = AUC(0 to infinity) in Sprague-Dawley rat at 50 mg/kg, IG measured upto 48 hrs by LC-MS/MS analysis; type: ADME, organism-based; details: in vivo, po
MDA-MB-231 [6] = test: Induction of T-cell mediated apoptosis in human MDA-MB-231 cells cocultured with PMA-stimulated Jurkat T cells assessed as mortality rate at 4 uM incubated for 48 hrs by CCK-8 assay; type: functional
A549 = test: Cytotoxicity against human A549 cells at 1 to 32 uM incubated for 48 hrs by CCK-8 assay; type: functional, cell-based; details: dose 1-32 µM
[7] = Apparent volume of distribution in Sprague-Dawley rat at 10 mg/kg, iv measured upto 48 hrs by LC-MS/MS analysis; type: ADME, organism-based; details: in vivo
MC-38 [8] = test: Antitumor activity against mouse MC38 cells expressing hPD-L1 implanted in PD-1/PD-L1 humanized C57BL/6 mouse assessed as downregulation of PD-L1 mRNA expression at 50 mg/kg, IG QD administered for 15 days by RT-PCR analysis; type: functional, organism-based; details: time 15.0 day
MC-38 [9] = test: Antiproliferative activity against mouse MC38 cells expressing hPD-L1 incubated for 48 hrs by CCK8 assay; details: MC-38, 48 h
[10] = Oral bioavilability in Sprague-Dawley rat at 50 mg/kg measured upto 48 hrs by LC-MS/MS analysis; type: ADME, organism-based; details: in vivo
MDA-MB-231 [11] = test: Induction of T-cell mediated apoptosis in human MDA-MB-231 cells cocultured with PMA-stimulated Jurkat T cells assessed as mortality rate at 8 uM incubated for 48 hrs by CCK-8 assay; type: functional
MC-38 [12] = test: Antitumor activity against mouse MC38 cells expressing hPD-L1 implanted in PD-1/PD-L1 humanized C57BL/6 mouse assessed as upregulation of perforin expression at 50 mg/kg, IG QD administered for 15 days by immunohistochemistry analysis; type: functional, organism-based; details: time 15.0 day
[13] = Toxicity in PD-1/PD-L1 humanized C57BL/6 mouse implanted with mouse MC38 cells expressing hPD-L1 assessed as change in kidney morphology at 50 mg/kg, IG QD administered for 15 days by H and E staining based inverted fluorescent microscopic assay; type: organism-based, MC-38; details: in vivo, po, 360 h, time 15 day
HCC827 [14] = test: Induction of T-cell mediated apoptosis in human HCC827 cells cocultured with PMA-stimulated Jurkat T cells assessed as mortality rate at 16 uM incubated for 48 hrs by CCK-8 assay; type: functional
[15] = Toxicity in PD-1/PD-L1 humanized C57BL/6 mouse implanted with mouse MC38 cells expressing hPD-L1 assessed as hepatotoxicity at 50 mg/kg, IG QD administered for 15 days; type: organism-based, MC-38; details: in vivo, po, 360 h, time 15 day
[16] = Toxicity in PD-1/PD-L1 humanized C57BL/6 mouse implanted with mouse MC38 cells expressing hPD-L1 assessed as change in lung morphology at 50 mg/kg, IG QD administered for 15 days by H and E staining based inverted fluorescent microscopic assay; type: organism-based, MC-38; details: in vivo, po, 360 h, time 15 day
MDA-MB-231 [17] = test: Cytotoxicity against human MDA-MB-231 cells at 1 to 32 uM incubated for 48 hrs by CCK-8 assay; type: functional, cell-based; details: dose 1-32 µM
[18] = Toxicity in PD-1/PD-L1 humanized C57BL/6 mouse implanted with mouse MC38 cells expressing hPD-L1 assessed as change in heart morphology at 50 mg/kg, IG QD administered for 15 days by H and E staining based inverted fluorescent microscopic assay; type: organism-based, MC-38; details: in vivo, po, 360 h, time 15 day
MC-38 [19] = test: Antitumor activity against mouse MC38 cells expressing hPD-L1 implanted in PD-1/PD-L1 humanized C57BL/6 mouse assessed as upregulation of CXCR3 mRNA expression at 50 mg/kg, IG QD administered for 15 days by RT-PCR analysis; type: functional, organism-based; details: time 15.0 day
MDA-MB-231 [20] = test: Induction of T-cell mediated apoptosis in human MDA-MB-231 cells cocultured with PMA-stimulated Jurkat T cells assessed as mortality rate at 16 uM incubated for 48 hrs by CCK-8 assay; type: functional
MC-38 [21] = test: Antitumor activity against mouse MC38 cells expressing hPD-L1 implanted in PD-1/PD-L1 humanized C57BL/6 mouse assessed as increase in ratio of CD3+/CD8+ to CD3+/CD4+ cells at 50 mg/kg, IG QD administered for 15 days by flow cytometry analysis; type: functional, organism-based; details: time 15.0 day
Jurkat = test: Cytotoxicity against human Jurkat T cells at 1 to 32 uM incubated for 48 hrs by CCK-8 assay; type: functional, cell-based; details: dose 1-32 µM
MC-38 [22] = test: Antitumor activity against mouse MC38 cells expressing hPD-L1 implanted in PD-1/PD-L1 humanized C57BL/6 mouse assessed as upregulation of CXCL10 mRNA expression at 50 mg/kg, IG QD administered for 15 days by RT-PCR analysis; type: functional, organism-based; details: time 15.0 day
MC-38 [23] = test: Antitumor activity against mouse MC38 cells expressing hPD-L1 implanted in PD-1/PD-L1 humanized C57BL/6 mouse assessed as increase in proportion of CD3+/CD8+ T cells at 50 mg/kg, IG QD administered for 15 days by flow cytometry analysis; type: functional, organism-based; details: time 15.0 day
[24] = Cytotoxicity against human PBMCs at 1 to 4 uM by CCK-8 assay; type: toxicity, cell-based; details: pbmc, dose 1-4 µM
MC-38 [25] = test: Antitumor activity against mouse MC38 cells expressing hPD-L1 implanted in PD-1/PD-L1 humanized C57BL/6 mouse assessed as upregulation of CXCL9 mRNA expression at 50 mg/kg, IG QD administered for 15 days by RT-PCR analysis; type: functional, organism-based; details: time 15.0 day
[26] = Half-life in Sprague-Dawley rat at 50 mg/kg, IG measured upto 48 hrs by LC-MS/MS analysis; type: ADME, organism-based; details: in vivo, po
[27] = AUC(0 to infinity) in Sprague-Dawley rat at 10 mg/kg, iv measured upto 48 hrs by LC-MS/MS analysis; type: ADME, organism-based; details: in vivo
[28] = Toxicity in PD-1/PD-L1 humanized C57BL/6 mouse implanted with mouse MC38 cells expressing hPD-L1 assessed as change in spleen morphology at 50 mg/kg, IG QD administered for 15 days by H and E staining based inverted fluorescent microscopic assay; type: organism-based, MC-38; details: in vivo, po, 360 h, time 15 day
[29] = Apparent volume of distribution in Sprague-Dawley rat at 50 mg/kg, IG measured upto 48 hrs by LC-MS/MS analysis; type: ADME, organism-based; details: in vivo, po
[30] = Half-life in Sprague-Dawley rat at 10 mg/kg, iv measured upto 48 hrs by LC-MS/MS analysis; type: ADME, organism-based; details: in vivo
[31] = Toxicity in PD-1/PD-L1 humanized C57BL/6 mouse implanted with mouse MC38 cells expressing hPD-L1 assessed as weight loss at 50 mg/kg, IG QD administered for 15 days; type: organism-based, MC-38; details: in vivo, po, 360 h, time 15 day

## N#Cc1cncc(COc2cc(OCc3cccc(-c4ccc5c(c4)OCCO5)c3C(F)F)ccc2CNCCO)c1
[1]
  CL: 12 mL/min/kg
[2]
  Cmax: 13500 ng/mL
HCC827 [3]
  Activity: 51.7%
[4]
  Tmax: 2.38 h
[5]
  AUC(0-inf): 42000 ng·h/mL
MDA-MB-231 [6]
  Activity: 40.6%
A549
  Activity: inactive
[7]
  Vz: 10.1 L/kg
MC-38 [8]
  Activity: Active
MC-38 [9]
  IC50: > 8 µM
[10]
  bioavailability: 65.3%
MDA-MB-231 [11]
  Activity: 45.9%
MC-38 [12]
  Activity: Active
[13]
  Activity: Non-Toxic
HCC827 [14]
  Activity: 59.6%
[15]
  Activity: Non-Toxic
[16]
  Activity: Non-Toxic
MDA-MB-231 [17]
  Activity: inactive
[18]
  Activity: Non-Toxic
MC-38 [19]
  Activity: Active
MDA-MB-231 [20]
  Activity: 57.1%
MC-38 [21]
  Activity: Active
Jurkat
  Activity: inactive
MC-38 [22]
  Activity: Active
MC-38 [23]
  Activity: Active
[24]
  Activity: Non-Toxic
MC-38 [25]
  Activity: Active
[26]
  t1/2: 5.52 h
[27]
  AUC(0-inf): 13900 ng·h/mL
[28]
  Activity: Non-Toxic
[29]
  Vz: 31.76 L/kg
[30]
  t1/2: 2.47 h
[31]
  Activity: Non-Toxic
